Assays:
[1] = xn = mol fraction of the nth substance listed; settings: 101 kPa, Liquid
[2] = 101 kPa, Liquid

CCCCn1cc[n+](C)c1.N#C[S-] [1-butyl-3-methylimidazolium thiocyanate] + CO
[1]
Settings	mass density, 298.15 K [kg/m3]	mass density, 308.15 K [kg/m3]	mass density, 318.15 K [kg/m3]	mass density, 328.15 K [kg/m3]	viscosity, 298.15 K [mPa·s]	viscosity, 308.15 K [mPa·s]	viscosity, 318.15 K [mPa·s]	viscosity, 328.15 K [mPa·s]
x1 = 0.0154	810	800.87	791.7	782.41	0.665	0.593	0.536	0.49
x1 = 0.0531	854.66	846.16	837.63	829.05	0.871	0.765	0.681	0.613
x1 = 0.0964	892.65	884.64	876.63	868.59	1.18	1.02	0.892	0.792
x1 = 0.1443	924.63	917.04	909.43	901.81	1.62	1.39	1.2	1.06
x1 = 0.2076	954.94	947.69	940.47	933.23	2.34	1.96	1.67	1.45
x1 = 0.3602	1001.45	994.74	988.06	981.43	5.15	4.13	3.33	2.82
x1 = 0.5083	1028.1	1021.68	1015.3	1008.99	9.75	7.55	6.03	4.85
x1 = 0.6227	1041.88	1035.64	1029.43	1023.26	14.5	10.8	8.4	6.68
x1 = 0.7114	1050.29	1044.13	1038.01	1031.94	19.4	14.1	10.7	8.4
x1 = 0.8006	1057.46	1051.39	1045.36	1039.38	25.4	18	13.4	10.32
x1 = 0.9046	1064.23	1058.22	1052.27	1046.37	34.1	23.3	16.9	12.78
x1 = 1	1069.79	1063.89	1058.02	1052.19	51.7	34.9	24.2	16.7

CCO [ethanol]
[2]
Settings	mass density [kg/m3]	viscosity [mPa·s]
298.15 K	785.17	1.09
308.15 K	776.49	0.912
318.15 K	767.67	0.774
328.15 K	758.65	0.664
338.15 K	749.35	0.589
348.15 K	739.75	0.512

CCO [ethanol] + CCCCn1cc[n+](C)c1.N#C[S-]
[1], x2 = 0
Settings	mass density [kg/m3]	viscosity [mPa·s]
298.15 K	785.17	1.09
308.15 K	776.49	0.912
318.15 K	767.67	0.774
328.15 K	758.65	0.664
338.15 K	749.35	0.589
348.15 K	739.75	0.512

CO [methanol]
[2]
Settings	mass density [kg/m3]	viscosity [mPa·s]
298.15 K	786.64	0.577
308.15 K	777.15	0.525
318.15 K	767.59	0.481
328.15 K	757.83	0.443

CO [methanol] + CCCCn1cc[n+](C)c1.N#C[S-]
[1], x2 = 0
Settings	mass density [kg/m3]	viscosity [mPa·s]
298.15 K	786.64	0.577
308.15 K	777.15	0.525
318.15 K	767.59	0.481
328.15 K	757.83	0.443

CCCO [propan-1-ol]
[2]
Settings	mass density [kg/m3]	viscosity [mPa·s]
298.15 K	799.52	1.94
308.15 K	791.41	1.54
318.15 K	783.15	1.24
328.15 K	774.66	1.02
338.15 K	765.91	0.842
348.15 K	756.84	0.71

CCCO [propan-1-ol] + CCCCn1cc[n+](C)c1.N#C[S-]
[1], x2 = 0
Settings	mass density [kg/m3]	viscosity [mPa·s]
298.15 K	799.52	1.94
308.15 K	791.41	1.54
318.15 K	783.15	1.24
328.15 K	774.66	1.02
338.15 K	765.91	0.842
348.15 K	756.84	0.71
